The experiment can be described thus: MARINE: plasma fatty acid concentrations, ratios and class proportions (GC/FID). The experiment is classed as in vivo, human. As to conditions: for Mono-unsaturated, proportion to total fatty acids, Mean placebo-adjusted percent change from baseline / Total omega-6, proportion to total fatty acids, Mean placebo-adjusted percent change from baseline / Saturated, proportion to total fatty acids, Mean placebo-adjusted percent change from baseline / Total omega-3, proportion to total fatty acids, Mean placebo-adjusted percent change from baseline: Plasma; for Palmitic Mean placebo-adjusted percent change from baseline / Oleic Mean placebo-adjusted percent change from baseline / Stearic Mean placebo-adjusted percent change from baseline / Linoleic Mean placebo-adjusted percent change from baseline / DHA Mean placebo-adjusted percent change from baseline / AA Mean placebo-adjusted percent change from baseline / DPAn-3 Mean placebo-adjusted percent change from baseline: plasma, week 12. The procedure:
A multi-center, placebo-controlled randomized, double-blind, 12-week study with an open-label extension is performed to evaluate the efficacy and safety of AMR101 in patients with fasting triglyceride levels≥500 mg/dL. The primary objective of the study is to determine the efficacy of AMR101 2 g daily and 4 g daily, compared to placebo, in lowering fasting TG levels in patients with fasting TG levels≥500 mg/dL and ≤1500 mg/dL (≥5.65 mmol/L and ≤16.94 mmol/L).
Eligible patients will be randomly assigned at Visit 4 (Week 0) to receive orally AMR101 2 g daily, AMR101 4 g daily, or placebo for the 12-week double-blind treatment period. AMR101 is provided in 1 g liquid-filled, oblong, gelatin capsules. The matching placebo capsule is filled with light liquid paraffin and contains 0 g of AMR101. During the double-blind treatment period, patients will take 2 capsules (AMR101 or matching placebo) in the morning and 2 in the evening for a total of 4 capsules per day. Patients in the AMR101 2 g/day treatment group will receive 1 AMR101 1 g capsule and 1 matching placebo capsule in the morning and in the evening. Patients in the AMR101 4 g/day treatment group will receive 2 AMR101 1 g capsules in the morning and evening.
Lipids were extracted from plasma and RBC suspensions and converted into fatty acid methyl esters for analysis using a standard validated gas chromatography/flame ionization detection method. Fatty acid parameters were compared between EPA treatment groups and placebo using an ANCOVA model with treatment, gender, type of statin therapy, and presence of diabetes as factors, and the baseline parameter value as a covariate. LSMs, SEs, and 2-tailed 95% confidence intervals for each treatment group and for each comparison were determined.
The monounsaturated fatty acid group included myristoleic, palmitoleic, cis-vaccenic, oleic, gondoic/gadoleic, erucic and nervonic acids. The saturated fatty acid group included myristic, palmitic, stearic, arachidic, behenic and lignoceric acids. The “total omega-3” group included α-linolenic, stearidonic, eicosatrienoic, ω-3 arachidonic, eicosapentaenoic, ω-3 docosapentaenoic and docosahecaenoic acids. The “total omega-6” group included linoleic, γ-linolenic, eicosadienoic, dihomo-γ-linolenic, ω-6 arachidonic, adrenic, and ω-6 docosapentaenoic acids. The “total fatty acid” group represented the sum of the monounsaturated, saturated, total omega-3 and total omega-6 groups.

[1] abbreviates: IPE 2 g/day vs placebo, P <0.0001.
[2] abbreviates: IPE 4 g/day vs placebo, P <0.0001.

The structures appear in SMILES notation.

As to `CC/C=C\C/C=C\C/C=C\C/C=C\C/C=C\CCCC(=O)OCC` [IPE, all-cis eicosa-5,8,11,14,17-pentaenoic acid ethyl ester], the “Mono-unsaturated, proportion to total fatty acids, Mean placebo-adjusted percent change from baseline” value reads like this: (IPE 2 g/day vs placebo, P 0.0009) −7.4%; (IPE 4 g/day vs placebo, P 0.0008) −7.7%. For the same compound, the “Total omega-6, proportion to total fatty acids, Mean placebo-adjusted percent change from baseline” value (IPE 2 g/day vs placebo, P 0.3044) was 3.2% and the “Total omega-6, proportion to total fatty acids, Mean placebo-adjusted percent change from baseline” value (IPE 4 g/day vs placebo, P 0.8846) was 0.5%. Also, the “Saturated, proportion to total fatty acids, Mean placebo-adjusted percent change from baseline” value reads like this: (IPE 2 g/day vs placebo, P 0.8076) −0.4%; (IPE 4 g/day vs placebo, P 0.1049) −2.8%. Moreover, the “Total omega-3, proportion to total fatty acids, Mean placebo-adjusted percent change from baseline” value is recorded as 68.4% under setting [1] and 132.7% under setting [2]. For the same compound, the “Palmitic Mean placebo-adjusted percent change from baseline” value reads like this: (IPE 2 g/day vs placebo, P 0.0011) −23.9%; under setting [2], −34.4%. Moreover, the “Oleic Mean placebo-adjusted percent change from baseline” value runs as follows: (IPE 2 g/day vs placebo, P 0.0023) −23.8%; (IPE 4 g/day vs placebo, P 0.0001) −31.9%. Besides, the “Stearic Mean placebo-adjusted percent change from baseline” value was −20.7% (IPE 2 g/day vs placebo, P 0.0040) and −28.4% (IPE 4 g/day vs placebo, P 0.0002). Moreover, the “Linoleic Mean placebo-adjusted percent change from baseline” value by setting is: (IPE 2 g/day vs placebo, P 0.0136) −15.2%; (IPE 4 g/day vs placebo, P 0.0003) −23.7%. Moreover, the “DHA Mean placebo-adjusted percent change from baseline” value reads like this: (IPE 2 g/day vs placebo, P 0.7217) −2.3%; (IPE 4 g/day vs placebo, P 0.7115) 2.4%. In addition, the “AA Mean placebo-adjusted percent change from baseline” value reads like this: under setting [1], −16.4%; under setting [2], −26.8%. For the same compound, the “DPAn-3 Mean placebo-adjusted percent change from baseline” value runs as follows: under setting [1], 107.2%; under setting [2], 150.8%.

The values above are taken from US11229618B2 (Amarin Pharmaceuticals Ireland Limited, priority 2012, dated 2022).
